Source: PubChem BioAssay AID1845215 (Molecular Pharmacology Branch, DTP, NCI, 2023)

Test system: SW 1271 complex tumor spheroid viability
Assay: Anticancer human tumor SW 1271 cell line growth inhibition;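 also: spheroids exposed to agents for seven days before readout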;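 as to viability, T/C: percent of DMSO vehicle control luminescence so 100% = vehicle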
Settings: for IC50: curve of first compound; for viability, T/C: stronger effect = lower value
Outline: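 Complex spheroids of malignant cells with endothelial cells and mesenchymal stem cells; agents alone or combined, from near clinical Cmax (or 10 microM if unknown) down in half-log steps, 0.25% DMSO final.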

[1] = second compound 30 pM, first compound 0.0316 µM
[2] = second compound 30 pM, first compound 0.1 µM
[3] = second compound 30 pM, first compound 0.316 µM
[4] = second compound 30 pM, first compound 1 µM
[5] = second compound 30 pM, first compound 3.16 µM
[6] = second compound 30 pM, first compound 10 µM
[7] = second compound 94.9 pM, first compound 0.0316 µM
[8] = second compound 94.9 pM, first compound 0.1 µM
[9] = second compound 94.9 pM, first compound 0.316 µM
[10] = second compound 94.9 pM, first compound 1 µM
[11] = second compound 94.9 pM, first compound 3.16 µM
[12] = second compound 94.9 pM, first compound 10 µM
[13] = second compound 0.0003 µM, first compound 0.0316 µM
[14] = second compound 0.0003 µM, first compound 0.1 µM
[15] = second compound 0.0003 µM, first compound 0.316 µM
[16] = second compound 0.0003 µM, first compound 1 µM
[17] = second compound 0.0003 µM, first compound 3.16 µM
[18] = second compound 0.0003 µM, first compound 10 µM
[19] = second compound 0.000949 µM, first compound 0.0316 µM
[20] = second compound 0.000949 µM, first compound 0.1 µM
[21] = second compound 0.000949 µM, first compound 0.316 µM
[22] = second compound 0.000949 µM, first compound 1 µM
[23] = second compound 0.000949 µM, first compound 3.16 µM
[24] = second compound 0.000949 µM, first compound 10 µM
[25] = second compound 0.003 µM, first compound 0.0316 µM
[26] = second compound 0.003 µM, first compound 0.1 µM
[27] = second compound 0.003 µM, first compound 0.316 µM
[28] = second compound 0.003 µM, first compound 1 µM
[29] = second compound 0.003 µM, first compound 3.16 µM
[30] = second compound 0.003 µM, first compound 10 µM

CC1COCCN1c1cc(-c2ccnn2C)c2ccnc(-c3ccn[nH]3)c2n1 (stereo not given) + COc1cc2c(cc1O)CCNC21CSC2c3c(OC(C)=O)c(C)c4c(c3C(COC1=O)N1C(O)C3Cc5cc(C)c(OC)c(O)c5C(C21)N3C)OCO4
IC50 (second compound 30 pM): < 31.6 nM
IC50 (second compound 94.9 pM): < 31.6 nM
IC50 (second compound 0.0003 µM): < 31.6 nM
IC50 (second compound 0.000949 µM): < 31.6 nM
IC50 (second compound 0.003 µM): < 31.6 nM
viability, T/C [1]: 42.9%
viability, T/C [2]: 12.5%
viability, T/C [3]: 7.53%
viability, T/C [4]: 3.2%
viability, T/C [5]: 2.78%
viability, T/C [6]: 2.04%
viability, T/C [7]: 10.9%
viability, T/C [8]: 6.89%
viability, T/C [9]: 5.14%
viability, T/C [10]: 3.73%
viability, T/C [11]: 1.95%
viability, T/C [12]: 2.12%
viability, T/C [13]: 10.8%
viability, T/C [14]: 6.88%
viability, T/C [15]: 5.11%
viability, T/C [16]: 2.88%
viability, T/C [17]: 1.51%
viability, T/C [18]: 1.29%
viability, T/C [19]: 3%
viability, T/C [20]: 1.96%
viability, T/C [21]: 1.34%
viability, T/C [22]: 1.09%
viability, T/C [23]: 0.1%
viability, T/C [24]: 0.3%
viability, T/C [25]: 0.1%
viability, T/C [26]: 0.09%
viability, T/C [27]: 0.1%
viability, T/C [28]: 0.08%
viability, T/C [29]: 0.09%
viability, T/C [30]: 0.15%

COc1cc(C)[nH]c(=O)c1CN1CCc2c(Cl)cc(C(OC)C3COC3)c(Cl)c2C1=O (stereo not given) + COc1cc2c(cc1O)CCNC21CSC2c3c(OC(C)=O)c(C)c4c(c3C(COC1=O)N1C(O)C3Cc5cc(C)c(OC)c(O)c5C(C21)N3C)OCO4
IC50 (second compound 30 pM): > 10000 nM
IC50 (second compound 94.9 pM): 5220 nM
IC50 (second compound 0.0003 µM): < 31.6 nM
IC50 (second compound 0.000949 µM): < 31.6 nM
IC50 (second compound 0.003 µM): < 31.6 nM
viability, T/C [1]: 101%
viability, T/C [2]: 96%
viability, T/C [3]: 96.4%
viability, T/C [4]: 89.6%
viability, T/C [5]: 86.8%
viability, T/C [6]: 77.1%
viability, T/C [7]: 65.9%
viability, T/C [8]: 75.3%
viability, T/C [9]: 67.4%
viability, T/C [10]: 64.4%
viability, T/C [11]: 57%
viability, T/C [12]: 40.9%
viability, T/C [13]: 33.3%
viability, T/C [14]: 37%
viability, T/C [15]: 34.2%
viability, T/C [16]: 38.3%
viability, T/C [17]: 36.6%
viability, T/C [18]: 37.1%
viability, T/C [19]: 5.93%
viability, T/C [20]: 5.35%
viability, T/C [21]: 4.91%
viability, T/C [22]: 3.61%
viability, T/C [23]: 7.88%
viability, T/C [24]: 2.67%
viability, T/C [25]: 0.11%
viability, T/C [26]: 0.12%
viability, T/C [27]: 0.11%
viability, T/C [28]: 0.11%
viability, T/C [29]: 0.11%
viability, T/C [30]: 0.16%

Cc1cc(C)c(CNC(=O)c2cc(-c3ccc(CN4CCOCC4)cc3)cc3c2cnn3C2CCCC2)c(=O)[nH]1 + COc1cc2c(cc1O)CCNC21CSC2c3c(OC(C)=O)c(C)c4c(c3C(COC1=O)N1C(O)C3Cc5cc(C)c(OC)c(O)c5C(C21)N3C)OCO4
IC50 (second compound 30 pM): > 10000 nM
IC50 (second compound 94.9 pM): 987 nM
IC50 (second compound 0.0003 µM): < 31.6 nM
IC50 (second compound 0.000949 µM): < 31.6 nM
IC50 (second compound 0.003 µM): < 31.6 nM
viability, T/C [1]: 86.2%
viability, T/C [2]: 92.9%
viability, T/C [3]: 90.4%
viability, T/C [4]: 87.4%
viability, T/C [5]: 84.5%
viability, T/C [6]: 66.2%
viability, T/C [7]: 59.6%
viability, T/C [8]: 63.3%
viability, T/C [9]: 66.6%
viability, T/C [10]: 49.8%
viability, T/C [11]: 40.7%
viability, T/C [12]: 34.4%
viability, T/C [13]: 32.9%
viability, T/C [14]: 35.7%
viability, T/C [15]: 34.1%
viability, T/C [16]: 30.3%
viability, T/C [17]: 29.3%
viability, T/C [18]: 24%
viability, T/C [19]: 2.96%
viability, T/C [20]: 14.8%
viability, T/C [21]: 2.88%
viability, T/C [22]: 3.26%
viability, T/C [23]: 1.94%
viability, T/C [24]: 1.96%
viability, T/C [25]: 0.23%
viability, T/C [26]: 0.24%
viability, T/C [27]: 0.28%
viability, T/C [28]: 0.25%
viability, T/C [29]: 0.21%
viability, T/C [30]: 0.29%

Cc1sc2c(c1C)C(c1ccc(Cl)cc1)=NC(CC(=O)Nc1ccc(O)cc1)c1nnc(C)n1-2 (stereo not given) + COc1cc2c(cc1O)CCNC21CSC2c3c(OC(C)=O)c(C)c4c(c3C(COC1=O)N1C(O)C3Cc5cc(C)c(OC)c(O)c5C(C21)N3C)OCO4
IC50 (second compound 30 pM): 145 nM
IC50 (second compound 94.9 pM): 41.6 nM
IC50 (second compound 0.0003 µM): < 9.49 nM
IC50 (second compound 0.000949 µM): < 9.49 nM
IC50 (second compound 0.003 µM): < 9.49 nM
viability, T/C (second compound 30 pM, first compound 0.00949 µM): 101%
viability, T/C (second compound 30 pM, first compound 0.03 µM): 108%
viability, T/C (second compound 30 pM, first compound 0.0949 µM): 74.3%
viability, T/C (second compound 30 pM, first compound 0.3 µM): 8.06%
viability, T/C (second compound 30 pM, first compound 0.949 µM): 1.02%
viability, T/C (second compound 30 pM, first compound 3 µM): 0.91%
viability, T/C (second compound 94.9 pM, first compound 0.00949 µM): 76.2%
viability, T/C (second compound 94.9 pM, first compound 0.03 µM): 57.9%
viability, T/C (second compound 94.9 pM, first compound 0.0949 µM): 28.9%
viability, T/C (second compound 94.9 pM, first compound 0.3 µM): 5.41%
viability, T/C (second compound 94.9 pM, first compound 0.949 µM): 1.12%
viability, T/C (second compound 94.9 pM, first compound 3 µM): 0.93%
viability, T/C (second compound 0.0003 µM, first compound 0.00949 µM): 30.6%
viability, T/C (second compound 0.0003 µM, first compound 0.03 µM): 23.9%
viability, T/C (second compound 0.0003 µM, first compound 0.0949 µM): 13.5%
viability, T/C (second compound 0.0003 µM, first compound 0.3 µM): 2.97%
viability, T/C (second compound 0.0003 µM, first compound 0.949 µM): 1.45%
viability, T/C (second compound 0.0003 µM, first compound 3 µM): 0.77%
viability, T/C (second compound 0.000949 µM, first compound 0.00949 µM): 6.61%
viability, T/C (second compound 0.000949 µM, first compound 0.03 µM): 6.28%
viability, T/C (second compound 0.000949 µM, first compound 0.0949 µM): 2.99%
viability, T/C (second compound 0.000949 µM, first compound 0.3 µM): 1.78%
viability, T/C (second compound 0.000949 µM, first compound 0.949 µM): 0.1%
viability, T/C (second compound 0.000949 µM, first compound 3 µM): 0.09%
viability, T/C (second compound 0.003 µM, first compound 0.00949 µM): 0.11%
viability, T/C (second compound 0.003 µM, first compound 0.03 µM): 0.11%
viability, T/C (second compound 0.003 µM, first compound 0.0949 µM): 0.11%
viability, T/C (second compound 0.003 µM, first compound 0.3 µM): 0.11%
viability, T/C (second compound 0.003 µM, first compound 0.949 µM): 0.09%
viability, T/C (second compound 0.003 µM, first compound 3 µM): 0.17%

[2H]c1nc(C)nc([2H])c1-c1cc(NC[C@@H](C)c2cccc3c(C(=O)NC)ccnc23)ncn1 + COc1cc2c(cc1O)CCNC21CSC2c3c(OC(C)=O)c(C)c4c(c3C(COC1=O)N1C(O)C3Cc5cc(C)c(OC)c(O)c5C(C21)N3C)OCO4
IC50 (second compound 30 pM): > 10000 nM
IC50 (second compound 94.9 pM): > 10000 nM
IC50 (second compound 0.0003 µM): < 31.6 nM
IC50 (second compound 0.000949 µM): < 31.6 nM
IC50 (second compound 0.003 µM): < 31.6 nM
viability, T/C [1]: 104%
viability, T/C [2]: 93.9%
viability, T/C [3]: 98.7%
viability, T/C [4]: 96.4%
viability, T/C [5]: 93.4%
viability, T/C [6]: 90.1%
viability, T/C [7]: 60.4%
viability, T/C [8]: 68.6%
viability, T/C [9]: 75.6%
viability, T/C [10]: 69.9%
viability, T/C [11]: 63.4%
viability, T/C [12]: 51.7%
viability, T/C [13]: 33.1%
viability, T/C [14]: 35.1%
viability, T/C [15]: 33.4%
viability, T/C [16]: 30.1%
viability, T/C [17]: 34.2%
viability, T/C [18]: 31.6%
viability, T/C [19]: 10.5%
viability, T/C [20]: 4.86%
viability, T/C [21]: 4.58%
viability, T/C [22]: 3.72%
viability, T/C [23]: 2.73%
viability, T/C [24]: 1.89%
viability, T/C [25]: 0.1%
viability, T/C [26]: 0.09%
viability, T/C [27]: 0.1%
viability, T/C [28]: 0.09%
viability, T/C [29]: 0.09%
viability, T/C [30]: 0.17%
